Experimental data: PubChem BioAssay (NCI)
Where “and” joins values, the source holds several entries; their conditions need not be identical. Equal values may be shown once.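 96-well plates; 48 h exposure; 5 concentrations. Endpoints by linear interpolation between flanking doses. Not reached: highest tested concentration assigned. GI50: concentration for 50% inhibition of growth. TGI denotes the concentration required for complete inhibition of growth.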 Where a SMILES comes first, the peptide text is derived from it.

Tests used:
Experiment in all cases: NCI tumour cell line growth inhibition, 48 h
HS 578T breast = tested on: HS 578T breast
DLD-1 colon = tested on: DLD-1 colon
DMS 114 small cell lung = tested on: DMS 114 small cell lung
HOP-18 NSCLC = tested on: HOP-18 NSCLC
M19-MEL melanoma = tested on: M19-MEL melanoma
RXF-631 renal = tested on: RXF-631 renal
MDA-N = tested on: MDA-N
P388 leukemia = tested on: P388 leukemia
P388/ADR leukemia = tested on: P388/ADR leukemia
SN12K1 renal = tested on: SN12K1 renal
XF 498 CNS = tested on: XF 498 CNS

Cc1cc(N2CCCC2)nc(NCc2cc(Nc3ccnc4cc(Cl)ccc34)ccc2F)n1
GI50 (HS 578T breast): 1.51 µM
TGI (HS 578T breast): 3.91 µM

O=C(CC1(O)C(=O)Nc2ccccc21)c1ccc(O)cc1 (centres undefined)
TGI (DLD-1 colon): > 100 µM
TGI (DMS 114 small cell lung): > 100 µM
TGI (HOP-18 NSCLC): > 100 µM
TGI (M19-MEL melanoma): > 100 µM
TGI (RXF-631 renal): > 100 µM

C[n+]1c(-c2ccc(/C=N/NC(=O)c3ccc(C(=O)N/N=C/c4ccc(-c5cn6ccccc6[n+]5C)cc4)cc3)cc2)cn2ccccc21
GI50 (HS 578T breast): > 1000 µM
TGI (HS 578T breast): > 1000 µM

O=C(O)CCc1c2ccc(=O)c(O)c-2oc2c(O)c(O)ccc12
TGI (HS 578T breast): > 100 µM
TGI (MDA-N): 36.5 µM

Cn1c2ccccc2c2c3[nH][nH]c(=O)c3c3c4ccccc4[nH]c3c21
GI50 (HS 578T breast): 0.993 µM
TGI (HS 578T breast): 5.88 µM

C/C(=N\N=C(\[Se])N(C)C)c1ccccn1
TGI (DLD-1 colon): 16.9 µM
TGI (DMS 114 small cell lung): < 0.01 µM
TGI (HOP-18 NSCLC): 12.1 µM
TGI (HS 578T breast): 40.6 µM
TGI (M19-MEL melanoma): 5.02 µM
TGI (MDA-N): 26.3 µM
TGI (P388 leukemia): < 0.01 µM
TGI (P388/ADR leukemia): < 0.01 µM
TGI (RXF-631 renal): 74.1 µM
TGI (SN12K1 renal): 13.9 µM
TGI (XF 498 CNS): 20.6 µM

CN[C@@H](C)[C@H](N)c1ccccc1
TGI (DLD-1 colon): > 100 µM
TGI (HOP-18 NSCLC): > 100 µM
TGI (RXF-631 renal): > 100 µM

COc1cc(N2CCN(C(C)C)CC2)ccc1Nc1nc(Nc2cccc(F)c2C(=O)O)c2cc[nH]c2n1
GI50 (HS 578T breast): > 25 µM
TGI (HS 578T breast): > 25 µM

CC(C)CC(Nc1c(O)ccc2ccccc12)C(=O)O (centres undefined)
TGI (HS 578T breast): 95.9 µM

Cc1ccn2c(CCc3nnc4cc(C)ccn34)nnc2c1
TGI (HS 578T breast): > 100 µM
TGI (MDA-N): > 100 µM

c1cncc(C2Nc3cccc4cccc(c34)N2)c1
GI50 (HS 578T breast): 73.4 µM
TGI (HS 578T breast): > 100 µM

CN1CCN(c2nc(NCCCNc3ccnc4cc(Cl)ccc34)c3ccccc3n2)CC1
GI50 (HS 578T breast): 3.35 µM
TGI (HS 578T breast): 19 µM

CCC(C)C1NC(=O)C2CCCN2C(=O)CNC(=O)C(C)NC(=O)C(Cc2ccccc2)NC(=O)C(C(C)C)NC1=O (centres undefined) (cyclo(GPIVFA); configuration not given here)
TGI (DLD-1 colon): > 100 µM
TGI (DMS 114 small cell lung): > 100 µM
TGI (HOP-18 NSCLC): > 100 µM
TGI (M19-MEL melanoma): > 100 µM
TGI (RXF-631 renal): > 100 µM

COC(=O)C1C=NNC1C(=O)OC (centres undefined)
TGI (DMS 114 small cell lung): > 100 µM
TGI (HOP-18 NSCLC): > 100 µM
TGI (M19-MEL melanoma): > 100 µM
TGI (RXF-631 renal): > 100 µM
TGI (XF 498 CNS): > 100 µM

C=C1C2CC(OC(C)=O)C3(C)C(c4ccoc4)OC(=O)[C@@H](O)[C@]13OC1C[C@H](OC(C)=O)C(C)(C)[C@H](CC(=O)OC)[C@]12C (some centres undefined)
TGI (DMS 114 small cell lung): > 100 µM
TGI (HOP-18 NSCLC): > 100 µM
TGI (M19-MEL melanoma): > 100 µM
TGI (RXF-631 renal): > 100 µM

CC(=O)C1=C(C)N(C)C2(O)C=CC(=O)C3=C(O)c4ccccc4C(=O)C312 (centres undefined)
GI50 (HS 578T breast): 7.23 µM
TGI (HS 578T breast): 40.5 µM

C/C(=N\NC(=S)N1CCCCCCCCCCCC1)c1ccccn1
TGI (HS 578T breast): 0.942 µM
TGI (MDA-N): 1.16 µM

N#Cc1c(N)nc(N)nc1N[C@H](c1nc2c(F)ccc(Cl)c2c(=O)n1-c1cccnc1)C1CC1
GI50 (HS 578T breast): 2.53 µM
TGI (HS 578T breast): 57.7 µM

Nc1nc(N)c2c(n1)NC(c1ccccc1)C1CCc3ccccc3C1=N2 (centres undefined)
GI50 (HS 578T breast): 5.85 µM
TGI (HS 578T breast): 30 µM

Cc1[nH]c(-c2nc3ccccc3[nH]2)c(C)c1C(=O)NC(C)C1CCCCC1 (centres undefined)
GI50 (HS 578T breast): 8.88 µM
TGI (HS 578T breast): 30.9 µM

COc1ccc(-c2cc(-c3cc(Cl)cc(Br)c3O)[nH]c(=O)n2)cc1
TGI (DLD-1 colon): 38.4 µM
TGI (DMS 114 small cell lung): 38 µM
TGI (HOP-18 NSCLC): 55.7 µM
TGI (M19-MEL melanoma): 46.4 µM

O=S(=O)([O-])[O-].[Cl-].[NH2-].[NH2-].[NH2-].[NH2-].[Ru+3].c1ccncc1
TGI (DLD-1 colon): > 100 µM

C/C(=N\NC(=S)N1CC2CCC(CC2)C1)c1cccc(C)n1
TGI (HS 578T breast): 27 µM
TGI (MDA-N): 17.8 µM

Cc1cc2nc3cc(C)c(N)cc3[n+](-c3ccccc3)c2cc1N
GI50 (HS 578T breast): 10.6 µM
TGI (HS 578T breast): > 100 µM

O=S1(=O)CCCS(=O)(=O)C(c2ccccc2)=C1c1ccccc1
TGI (DLD-1 colon): > 100 µM
TGI (DMS 114 small cell lung): > 100 µM
TGI (HOP-18 NSCLC): > 100 µM
TGI (M19-MEL melanoma): > 100 µM
TGI (RXF-631 renal): > 100 µM

NC(N)=Nc1nc2ccc([N+](=O)[O-])cc2[nH]1
TGI (HS 578T breast): > 100 µM
TGI (MDA-N): > 100 µM

COC1C(OC(=O)/C=C/C=C/C=C/C=C\C(=O)O)CCC2(CO2)C1C1(C)OC1CC=C(C)C (centres undefined)
GI50 (HS 578T breast): > 200 µM
TGI (HS 578T breast): > 200 µM

COc1ccc(/C=c2/sc3n(c2=O)NC2(CCC(C)CC2)NN=3)cc1 (centres undefined)
TGI (DLD-1 colon): > 100 µM
TGI (DMS 114 small cell lung): > 100 µM
TGI (M19-MEL melanoma): > 100 µM
TGI (XF 498 CNS): > 100 µM

COC(=O)/C=C1/SC(N2N=C(c3cccs3)CC2c2ccc(F)cc2)=NC1=O (centres undefined)
GI50 (HS 578T breast): 4.46 µM
TGI (HS 578T breast): > 100 µM

O=C1Nc2ccccc2/C1=C\c1nc(C2CCN(S(=O)(=O)c3ccc(F)cc3)CC2)n2ccccc12
GI50 (HS 578T breast): 1.22 µM
TGI (HS 578T breast): 5.78 µM

CC1=C(C(=O)Nc2ccc([N+](=O)[O-])cc2)C(c2ccc3c(c2)OCO3)C(C(=O)Nc2ccc([N+](=O)[O-])cc2)=C(C)N1
TGI (DLD-1 colon): > 100 µM
TGI (DMS 114 small cell lung): > 100 µM
TGI (HOP-18 NSCLC): > 100 µM
TGI (M19-MEL melanoma): 61.6 µM

COc1ccc(/C(Cl)=C(\c2ccc(OCCN(C)C)cc2)c2ccc(OC(=O)C(C)(C)C)cc2)cc1
TGI (DLD-1 colon): 26.6 µM
TGI (DMS 114 small cell lung): 24.6 µM
TGI (M19-MEL melanoma): 26.6 µM
TGI (XF 498 CNS): 23.7 µM

C=C(CC(=O)O)C(=O)O (tested in a mixture with another compound)
GI50 (HS 578T breast): > 50 µg/mL
TGI (HS 578T breast): > 50 µg/mL
GI50 (MDA-N): > 50 µg/mL
TGI (MDA-N): > 50 µg/mL

COCCN1CCN(Cc2ccc(-c3n[nH]c4c3C(=O)c3c(NC(=O)NN5CCOCC5)cccc3-4)cc2)CC1
GI50 (HS 578T breast): 0.0293 µM
TGI (HS 578T breast): 1.22 µM

COC(=O)N/N=C(/CCC(=O)Nc1ccc(C)c(C)c1)CC(=O)C(C)(C)C
TGI (DLD-1 colon): > 100 µM
TGI (DMS 114 small cell lung): > 100 µM
TGI (HOP-18 NSCLC): > 100 µM
TGI (M19-MEL melanoma): > 100 µM
TGI (XF 498 CNS): > 100 µM

CC(C)n1nc(-c2ccc3oc(N)nc3c2)c2c(N)ncnc21
GI50 (HS 578T breast): < 0.01 µM
TGI (HS 578T breast): 0.0323 µM and 0.0517 µM

COc1cc(-c2cc(/C=C/C(=O)c3ccc(Cl)c(Cl)c3)[nH]n2)cc(OC)c1OC
GI50 (HS 578T breast): 16.6 µM
TGI (HS 578T breast): > 100 µM

O=[N+]([O-])c1cc(Cl)ccc1OCc1ccccc1
TGI (DLD-1 colon): > 100 µM
TGI (DMS 114 small cell lung): > 100 µM
TGI (M19-MEL melanoma): > 100 µM
TGI (RXF-631 renal): > 100 µM
TGI (XF 498 CNS): > 100 µM
